Several values for one entry are separate records, joined by “and”; a condition that tells them apart may be missing. Equal values may be shown once. Where a name gives a salt, the structure may show the parent alone. Blank lines part the entries; values can stand above or below the molecule they belong to.
Tests used:
Type in all cases: in vivo, human
[1] = Phase I 2-period cross-over study (Part 2): safety and tolerability, adverse events; details: DMF 240 mg or Compound 1 DR 420 mg
Text: (§1) (The DMF oral dosage form used in this study was […]®, (Biogen Idec, Inc Cambridge, MA, USA)). A total of 16 subjects were enrolled and randomized to a treatment sequence.
Each dosing period was separated by a wash-out period of 7 days. […]

[2] = Phase I 2-period cross-over study (Part 2): plasma MMF pharmacokinetics; details: 420 mg Compound 1 DR versus 240 mg DMF
Description: as §1
Each dosing period was separated by a wash-out period of 7 days.
(§2) Blood samples were collected from all subjects prior to dosing and at 0.25, 0.50, 1, 1.50, 2, 2.50, 3, 4, 6, 8, 10, 12, and 24 hours after dosing. Plasma obtained from blood samples were analyzed for Compound 1, MMF and another metabolite using validated LC-MS/MS method. The plasma concentration-time profiles were analyzed via Non-Compartmental analysis (NCA) using Phoenix WinNonLin, version 6.3.

[3] = Single ascending dose study (Part 1): plasma MMF pharmacokinetics; details: oral dosing, 49 to 980 mg
Description: (§3) A randomized, double-blind, placebo-controlled, sequential, single ascending dose study was conducted in healthy subjects to investigate the safety, tolerability and pharmacokinetics of capsules containing delayed release (DR) mini-tablets of Compound 1 from Example 2.1 (“Compound 1 DR capsules”). Up to 7 cohorts were included with 8 subjects in each cohort. In each cohort, 6 subjects received Compound 1 DR capsules and 2 subjects were treated with placebo in fasted condition. Compound 1 doses investigated were 49 mg (Cohort 1), 105 mg (Cohort 2), 210 mg (Cohort 3), 420 mg (Cohort 4), 630 mg (Cohort 5), 840 mg (Cohort 6), and 980 mg (Cohort 7) (all weights being mg of prodrug).
as §2

[4] = Single ascending dose study (Part 1): safety and tolerability, adverse events
Description: as §3

Structure (SMILES): COC(=O)/C=C/C(=O)OC [DMF, Dimethyl fumarate]
mean onset of flushing [1]: 1.2 h
Subjects with Constipation ([1]; N = 12): 0 n (%)
Subjects with Diarrhoea ([1]; N = 12): 1 (8.3%) n (%) and 1 n (%)
Subjects with Eructation ([1]; N = 12): 1 n (%)
Subjects with Flatulence ([1]; N = 12): 1 n (%)
Subjects with Flushing ([1]; N = 12): 8 (66.7%) n (%) and 8 n (%)
Subjects with Gastrointestinal disorders (SOC) ([1]; N = 12): 5 (41.7%) n (%) and 5 n (%)
Subjects with Nausea ([1]; N = 12): 3 (25%) n (%) and 3 n (%)
Subjects with Retching ([1]; N = 12): 1 (8.3%) n (%) and 1 n (%)
Subjects with Vascular disorders (SOC) ([1]; N = 12): 8 n (%)

PK variability (% CV) compared to DMF treatment [2]: less PK variability
PK variability (% CV) compared to DMF treatment ([2]; listed as 2-(2,5-dioxopyrrolidin-1-yl)ethyl methyl fumarate): less variability
conversion to metabolite MMF in plasma [3]: rapidly converted
Structure (SMILES): COC(=O)/C=C/C(=O)OCCN1C(=O)CCC1=O [Compound 1, 2-(2,5-dioxopyrrolidin-1-yl)ethyl methyl fumarate]
Subjects with Abdominal discomfort ([4]; 49 mg, N = 6): 0 n (%)
Subjects with Abdominal pain ([4]; 49 mg, N = 6): 0 n (%)
Subjects with Diarrhoea ([4]; 49 mg, N = 6): 0 n (%)
Subjects with Flatulence ([4]; 49 mg, N = 6): 0 n (%)
Subjects with Flushing ([4]; 49 mg, N = 6): 1 (16.7) n (%)
Subjects with Frequent bowel movements ([4]; 49 mg, N = 6): 1 (16.7) n (%)
Subjects with Gastrointestinal disorders (SOC) ([4]; 49 mg, N = 6): 1 (16.7) n (%)
Subjects with Nausea ([4]; 49 mg, N = 6): 0 n (%)
Subjects with Vascular disorders (SOC) ([4]; 49 mg, N = 6): 1 (16.7) n (%)
Subjects with Abdominal discomfort ([4]; 105 mg, N = 6): 0 n (%)
Subjects with Abdominal pain ([4]; 105 mg, N = 6): 0 n (%)
Subjects with Diarrhoea ([4]; 105 mg, N = 6): 0 n (%)
Subjects with Flatulence ([4]; 105 mg, N = 6): 0 n (%)
Subjects with Flushing ([4]; 105 mg, N = 6): 0 n (%)
Subjects with Frequent bowel movements ([4]; 105 mg, N = 6): 0 n (%)
Subjects with Gastrointestinal disorders (SOC) ([4]; 105 mg, N = 6): 0 n (%)
Subjects with Nausea ([4]; 105 mg, N = 6): 0 n (%)
Subjects with Vascular disorders (SOC) ([4]; 105 mg, N = 6): 0 n (%)
Subjects with Abdominal discomfort ([4]; 210 mg, N = 6): 1 (16.7) n (%)
Subjects with Abdominal pain ([4]; 210 mg, N = 6): 0 n (%)
Subjects with Diarrhoea ([4]; 210 mg, N = 6): 0 n (%)
Subjects with Flatulence ([4]; 210 mg, N = 6): 0 n (%)
Subjects with Flushing ([4]; 210 mg, N = 6): 2 (33.3) n (%)
Subjects with Frequent bowel movements ([4]; 210 mg, N = 6): 0 n (%)
Subjects with Gastrointestinal disorders (SOC) ([4]; 210 mg, N = 6): 1 (16.7) n (%)
Subjects with Nausea ([4]; 210 mg, N = 6): 0 n (%)
Subjects with Vascular disorders (SOC) ([4]; 210 mg, N = 6): 2 (33.3) n (%)
Subjects with Abdominal discomfort ([4]; 420 mg, N = 6): 0 n (%)
Subjects with Abdominal pain ([4]; 420 mg, N = 6): 0 n (%)
Subjects with Diarrhoea ([4]; 420 mg, N = 6): 0 n (%)
Subjects with Flatulence ([4]; 420 mg, N = 6): 0 n (%)
Subjects with Flushing ([4]; 420 mg, N = 6): 4 (66.7) n (%)
Subjects with Frequent bowel movements ([4]; 420 mg, N = 6): 0 n (%)
Subjects with Gastrointestinal disorders (SOC) ([4]; 420 mg, N = 6): 0 n (%)
Subjects with Nausea ([4]; 420 mg, N = 6): 0 n (%)
Subjects with Vascular disorders (SOC) ([4]; 420 mg, N = 6): 4 (66.7) n (%)
Subjects with Abdominal discomfort ([4]; 630 mg, N = 6): 0 n (%)
Subjects with Abdominal pain ([4]; 630 mg, N = 6): 0 n (%)
Subjects with Diarrhoea ([4]; 630 mg, N = 6): 1 n (%)
Subjects with Flatulence ([4]; 630 mg, N = 6): 0 n (%)
Subjects with Flushing ([4]; 630 mg, N = 6): 6 n (%)
Subjects with Frequent bowel movements ([4]; 630 mg, N = 6): 0 n (%)
Subjects with Gastrointestinal disorders (SOC) ([4]; 630 mg, N = 6): 1 n (%)
Subjects with Nausea ([4]; 630 mg, N = 6): 0 n (%)
Subjects with Vascular disorders (SOC) ([4]; 630 mg, N = 6): 6 n (%)
Subjects with Abdominal discomfort ([4]; 840 mg, N = 6): 0 n (%)
Subjects with Abdominal pain ([4]; 840 mg, N = 6): 0 n (%)
Subjects with Diarrhoea ([4]; 840 mg, N = 6): 1 (16.7) n (%)
Subjects with Flatulence ([4]; 840 mg, N = 6): 2 (33.3) n (%)
Subjects with Flushing ([4]; 840 mg, N = 6): 5 (83.3) n (%)
Subjects with Frequent bowel movements ([4]; 840 mg, N = 6): 0 n (%)
Subjects with Gastrointestinal disorders (SOC) ([4]; 840 mg, N = 6): 2 (33.3) n (%)
Subjects with Nausea ([4]; 840 mg, N = 6): 0 n (%)
Subjects with Vascular disorders (SOC) ([4]; 840 mg, N = 6): 5 (83.3) n (%)
Subjects with Abdominal discomfort ([4]; 980 mg, N = 6): 1 n (%)
Subjects with Abdominal pain ([4]; 980 mg, N = 6): 1 n (%)
Subjects with Diarrhoea ([4]; 980 mg, N = 6): 2 n (%)
Subjects with Flatulence ([4]; 980 mg, N = 6): 1 n (%)
Subjects with Flushing ([4]; 980 mg, N = 6): 6 n (%)
Subjects with Frequent bowel movements ([4]; 980 mg, N = 6): 0 n (%)
Subjects with Gastrointestinal disorders (SOC) ([4]; 980 mg, N = 6): 4 n (%)
Subjects with Nausea ([4]; 980 mg, N = 6): 2 n (%)
Subjects with Vascular disorders (SOC) ([4]; 980 mg, N = 6): 6 n (%)
tolerability during the trial ([4]; 49 to 980 mg single doses): well tolerated
Subjects with Flushing ([4]; dose levels ≥420 mg): > 50%
Subjects with Flushing ([1]; N = 12): 8 (66.7%) n (%)
Subjects with Gastrointestinal disorders (SOC) ([1]; N = 12): 1 (8.3%) n (%)
